According to patent publication US7262267B1, “Polypeptide mediating cell permeability” (Island Pharmacueticals, Ltd., priority 1998, dated 2007):
Where no end group is shown, it is not given here.

Legend:
293 cells = assay: Cell permeability: detection of the protein in the cytosolic fraction of 293 cells by Western blot; type: cell-based; conditions: 1 μM in medium, Western blot anti-hexa-His and anti-eGFP
Procedure: Detection of the cell permeability mediated by DHBV (duck hepatitis B virus)-CPP was made as follows: According to standard methods a fusion protein consisting of a hexa-His-Tag (6H), DHBV-CPP and eGFP (enhanced green fluorescent protein) was prepared in analogy to Example 1 in an E. coli expression system. The pQE vector system of the Quiagen company was used. This protein (DHBV42-53eGFP) was isolated. wt6HeGFP (fusion protein of 6 His and eGFP) was used for control experiments. Then, 293 cells were incubated in the presence of these proteins for 10 and 20 minutes. The proteins were added to the medium at a concentration of 1 μM. After 10 or 20 minutes, the cells were lyzed and the cytosolic fraction of the cells was isolated by ultracentrifugation.
The presence of DHBV42-53 eGFP in the cytosol fraction was detected by means of Western blot analysis using a hexa-His-tag-specific antibody (FIG. 6, lanes 1-4) (anti-hexa-His6 of Qiagen company) or an eGFP-specific antibody (anti-eGFP of Clontech company) (FIG. 6, lanes 5-8). A peroxidase-conjugated secondary antibody (anti-mouse HRP, anti-rabbit-HRP of Amersham company) was used for the detection.

c-Raf1 kinase = assay: Inhibition of the TNFα-dependent activation of c-Raf1 kinase (immunocomplex test with MEK and γ-32P-ATP); type: cell-based; conditions: HeLa cells incubated 2 h with 2 μM polypeptide, stimulated 15 min with TNFα; FIG. 2
Source text: The detection of cell permeability mediated by CPP is shown by inhibition of the TNFα-dependent activation of c-Raf1 kinase. The activation of the c-Raf1 kinase is based on the interaction between the TNF receptor I (TNR-RI) and the adapter molecule Grb2. For this purpose, the SH3 domain of Grb2 interacts with a PLAP motive from the cytoplasmic domain of TNF-RI.
CPP is provided in the form of a fusion polypeptide. In this fusion polypeptide referred to as CPP-PLAP CPP, the amino acid sequence of FIG. 1 is present as N-terminus partner and a PLAP motive from the cytoplasmic domain of TNF-RI is present as C-terminus partner. A fusion polypeptide referred to as CPP-KLAP is also provided, which has a mutated PLAP motive.
HeLa cells are incubated for 2 h with 2 μM CPP-PLAP or CPP-KLAP (control) and stimulated for 15 min with 100 μ/ml TNFα. The activation of c-Raf1 kinase is determined by an immunocomplex test using MEK (Santa Cruz, Biotech) and y^32p-ATP as substrate (cf. FIG. 2).

DHBV42-53-eGFP: fusion protein consisting of a hexa-His-Tag (6H), DHBV-CPP and eGFP (enhanced green fluorescent protein) (TIDHVLDHVQTM; not fully specified (C-terminus); also: fusion with hexa-His tag and eGFP, not in the chain)
internalization of the protein into the cell (cytosol) (293 cells; after 10 min): can be observed
internalization of the protein into the cell (cytosol) (293 cells; after 20 minutes): can be observed

CPP-PLAP: fusion polypeptide: amino acid sequence of FIG. 1 as N-terminus partner, PLAP motive from cytoplasmic domain of TNF-RI as C-terminus partner (PLSSIFSRIGDPTTTKPLAPNPSF)
inhibition of the TNFα-dependent activation of c-Raf1 kinase (c-Raf1 kinase): fully inhibits
